The text below walks through data of patent US5525627A, “Esters of acyl carnitines with long-chain aliphatic alcohols and pharmaceutical compositions containing same having antimycotic activity” (Sigma-Tau Industrie Farmaceutiche Riunite S.p.A., priority 1992, dated 1996).

The subject of one series is Candida albicans (PG). Kind of series: MIC and MFC for yeast and yeast-like strains. The format is cell-based. The method, boiled down:
(§1)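 Candida, Cryptococcus, Saccharomyces and Torulopsis strains tested by broth microdilution in Yeast Nitrogen Base with 0.15% asparagine and 1.0% glucose, buffered with 0.165 M MOPS; final inoculum about 5.0×10^4 CFU/ml from overnight (Cryptococcus 48-hour) Sabouraud cultures. MFC from spot-transfer of wells without visible growth onto Sabouraud agar.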

The subject of series [1] is spleen, thymus and splenocytes. Kind of series: Test 3: body, spleen and thymus weight and splenocyte concentration. The series is classed as in vivo, mice (male B6 D2 F1). The following applies: 100 mg/kg/day oral, 5 consecutive days. The procedure: Test 3: Evaluation of the effect of repeated oral administrations of ST 722 on the body, spleen and thymus weight, and on the splenocyte concentration in mice.
Male B6 D2 F1 mice (C. River) aged 10 weeks (5 animals each group) were orally treated with the substance ST 722 at the dose of 100 mg/kg/day for 5 consecutive days. Twenty-four hours after the last administration, the animals were sacrificed, the organs removed and weighed, and the splenocyte number determined.

The subject of the next series is yeast-like fungi. Kind of series: MIC / MFC for yeast-like fungi, all strains. The format is cell-based, Candida, Cryptococcus, Saccharomyces, Torulopsis. Conditions: versus susceptible strains; read-out: Mean MIC values. The method, boiled down:
as §1

A further series relates to Candida albicans (ISS 1). Kind of series: MIC for yeast and yeast-like strains. The series is classed as cell-based. Conditions: 48 hours, 35° C., read-out: Minimal Inhibitory Concentration (MIC). The method, boiled down:
(§2)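 MIC values derive from microdilution testing at a final fungal density near 5.0×10^4 CFU/ml. The medium was Yeast Nitrogen Base supplemented with 0.15% asparagine and 1.0% glucose, buffered with 0.165 M MOPS.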

Series [2] has as its system Candida parapsilosis (ISS 1). Kind of series: MIC for yeast and yeast-like strains. The format is cell-based. The following applies: Lodderomyces parapsilosis; 48 hours, 35° C.; read-out: Minimal Inhibitory Concentration (MIC). The method, boiled down:
as §2

A further series has as its system Candida glabrata (ISS 1). Kind of series: MIC for yeast and yeast-like strains. The series is classed as cell-based. Conditions: Nakaseomyces glabratus; 48 hours, 35° C.; read-out: Minimal Inhibitory Concentration (MIC). The method, boiled down:
as §2

The subject of series [3] is Candida pseudotropicalis (EC 1). Kind of series: MIC for yeast and yeast-like strains. The series is classed as cell-based. Conditions: Kluyveromyces marxianus; 48 hours, 35° C.; read-out: Minimal Inhibitory Concentration (MIC). The method, boiled down:
as §2

The test system of series [4] is Candida tropicalis (ISS 1). Kind of series: MIC for yeast and yeast-like strains. The format is cell-based. The following applies: 48 hours, 35° C., read-out: Minimal Inhibitory Concentration (MIC). The method, boiled down: as §2
The subject of series [5] is Cryptococcus neoformans (ISS 1). Kind of series: MIC for yeast and yeast-like strains. The format is cell-based. Conditions: 48 hours, 35° C., read-out: Minimal Inhibitory Concentration (MIC). The method, boiled down:
as §2

Series [6] concerns Candida albicans (ATCC 2091). Kind of series: MIC for yeast and yeast-like strains. The following applies: ATCC2091, 48 hours, 35° C., read-out: Minimal Inhibitory Concentration (MIC). The series is classed as cell-based. The method, boiled down:
as §2

The subject of series [7] is Candida guilliermondii (ISS 1). Kind of series: MIC for yeast and yeast-like strains. The series is classed as cell-based. Conditions: Meyerozyma guilliermondii; 48 hours, 35° C.; read-out: Minimal Inhibitory Concentration (MIC). The method, boiled down:
as §2

A short description of series [8]: Test 2: weight of murine lymphoid organs after repeated oral administrations. The format is in vivo, mice (male B6 D2 F1). Conditions: 100 mg/kg/day oral, 7 consecutive days; x ± S.E. Here is the method: Test 2: Evaluation of the effect of repeated oral administrations of ST 722 on the weight of murine lymphoid organs (spleen and thymus).
Male B6 D2 F1 mice (C. River) aged 7 weeks (7-8 animals each group) were orally treated with the substance ST 722 at the dose of 100 mg/kg/day for 7 consecutive days. Twenty-four hours after the last administration, the animals were sacrificed, the organs removed and weighed.

Series [9] has as its system antibody-producer B lymphocytes (spleen). Kind of series: Test 1: primary antibody production (Jerne test) in spleen of SRBC immunized mice. The series is classed as in vivo, mice (male B6 D2F1). Here is the method:
Test 1: Evaluation of the "in vitro-ex vivo" effect of repeated oral administrations of ST 722 on the primary antibody production (Jerne test) in the spleen of SRBC (Sheep Red Blood Cells) immunized mice.
Male B6 D2F1 mice (C. River) aged 8 weeks (6 animals each group) were utilized.
The substance (ST 722) was administered per os at the dose of 100 mg/kg/day from day -2 through day +2 (immunization at day 0). The animals were immunized by intraperitoneal route with a concentration of 1.0×10^8 cells/mouse in 0.2 ml of sterile saline.
Five days later, spleens to be submitted to teasing process were removed from the animals sacrificed by cervical dislocation. After standardization at 1.0×10^7 cells/ml. the splenocytes (0.1 ml) were mixed with warm agar-Hank's (2 ml) and 10% SRBC in PBS (0.2 ml) and seeded in Petri dishes (samples tested in triplicates) and incubated at 37° C. for 60 min.
After addition of complement (2 ml of guinea pig serum diluted 1:10 in Tris buffer), samples were further incubated at 37° C. for 30 min. To block the haemolysis reaction, the Petri dishes were cooled at 4° C. and the haemolysis plaques were counted.
The antibody response to SRBC is expressed as number of plaque forming cells (PFC) per 1.0×10^6 splenocytes as well as per spleen.

The mark [10] stands for this setting: 100 mg/kg/day per os, day -2 through day +2, x ± S.E.

The structures appear in SMILES notation.

By MFC is commonly meant the lowest tested concentration that kills the fungus rather than only halting it. Read a low MFC as more potent killing. Compound `CCCCCCCCCCCOC(=O)C[C@H](C[N+](C)(C)C)OC(=O)CC(C)C` [ST 722, isovaleryl-L-carnitine undecyl ester chloride] returned an MFC with Candida albicans (PG) (48 h, C. albicans PG) of 3.12 µg/mL. Moreover, the MIC with Candida albicans (PG) (48 hours, 35° C., read-out: Minimal Inhibitory Concentration (MIC)) was found to be 3.12 µg/mL; with yeast-like fungi, 3.76 µg/mL; with Candida albicans (ISS 1), 1.56 µg/mL; in series [2], 6.25 µg/mL; in the series with Candida glabrata (ISS 1) it was 6.25 µg/mL; in series [3], 6.25 µg/mL. Also, the MIC came to 3.12 µg/mL in series [4], 3.12 µg/mL in series [5], 3.12 µg/mL in series [6] and 6.25 µg/mL in series [7]. Further, the “specific immunotoxic effects on the considered parameters” value in [1] is given as “lack of specific immunotoxic effects”. In addition, the Body weight worked out at 26.50 ± 0.53 g in series [1] (x ± S.E.) and 22.74 ± 0.37 g in series [8]. Moreover, the Spleen weight in series [1] (x ± S.E.) turned out to be 73.25 ± 3.84 mg; in series [8] it was 77.88 ± 2.38 mg. The Thymus weight in [1] (x ± S.E.) came to 38.80 ± 3.01 mg; in series [8] it was 52.88 ± 3.20 mg. The “PFC/10^6 cells” value in [9] (setting [10]) was determined as 261 ± 34 PFC/10^6 cells. The compound also returned a PFC/spleen in series [9] (setting [10]) of 44440 ± 6087 PFC/spleen. Also, the “PFC number after antigenic challenge” value in series [9] (5 consecutive days oral) is reported as “did not cause a statistically significant modification in PFC number”.
